The source of these data is PubChem BioAssay AID2124 (Sanford-Burnham Center for Chemical Genomics, 2009).

Inconclusive results are not listed. Active and inactive are the calls of the source. No rule for the calls is given here; tested in MIN6 cells.

A short description of experiment [1]: GFP-wavelength compound autofluorescence in cells – imaging, high-content imaging, artefact control, dose response (AID 2124).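 As to cell count: cells exposed to compound for 48 hours before fixing.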 The conditions noted are these: cells, GFP-channel autofluorescence, high-content imaging; cell count; at 10 µM.
Experiment [2] relates to cells, GFP-channel autofluorescence, high-content imaging. Described as above.

For orientation: EC50 means the concentration at which the effect is half-maximal. The compound `Cc1oc(C)c2c(=O)ccc3c(c12)OC(N)=C(C#N)C3c1ccccc1Cl` (stereo not drawn) gave a cell count in experiment [1] of 3240 cells. The EC50 in experiment [2] was 14.8 µM (inactive).

Take `CCN1CC=C2C(C#N)=C(N)C(C#N)(C#N)C(c3cc(Cl)ccc3Cl)C2C1` (stereo not drawn): in experiment [1], the cell count was 2980 cells. Also, in experiment [2], the EC50 is 12.8 µM (inactive).

Compound `COC(=O)c1cc2c(-c3ccccc3)c(C)c3ccccn3c-2c1C(=O)OC` came in with a cell count in experiment [1] of 2900 cells. Besides, the EC50 in experiment [2] is 11.3 µM (inactive).

`Cc1nn(C)cc1N1C(=O)c2cccc3c(N)ccc(c23)C1=O` displayed a cell count in experiment [1] of 2940 cells. Further, in experiment [2], the EC50 is > 16 µM (inactive).
